Values quoted from earlier work as cited in patent US9155702B2, “Composition and microsphere for controlled-release of exendin, and method preparing the same” (PEPTRON CO., LTD, priority 2007, dated 2015).

Tested on: diabetic ob/ob mice
Settings: intraperitoneal injections once per day

In the case of exendin-4, the “effect of lowering the blood-sugar level” value is listed as “prolonged effect of lowering the blood-sugar level”.
